Laboratory results published in ChEMBL document CHEMBL3885881, “DrugMatrix”.

Species on record: Rattus norvegicus
Assay: DrugMatrix - Regimen: Daily Repeat
Assay type: toxicity, organism-based, Sprague-Dawley
Set-up: regimen Daily Repeat, gender Male, age 6-8 weeks
Settings: in vivo, po, route oral GAVAGE, vehicle .5 % CMC; for ABSOLUTE BASOPHIL / ABSOLUTE EOSINOPHIL / ABSOLUTE LYMPHOCYTE / ABSOLUTE MONOCYTE / ABSOLUTE SEGMENTED NEUTROPHIL / BASOPHIL / EOSINOPHIL / ERYTHROCYTE COUNT / HEMATOCRIT / HEMOGLOBIN / LEUKOCYTE COUNT / LYMPHOCYTE / MEAN CORPUSCULAR HEMOGLOBIN / MEAN CORPUSCULAR HEMOGLOBIN CONCENTRATION / MEAN CORPUSCULAR VOLUME / MONOCYTE / NEUTROPHIL / NUCLEATED RED BLOOD CELLS / PLATELET COUNT: tissue Blood; for ALANINE AMINOTRANSFERASE / ALBUMIN / ALKALINE PHOSPHATASE / ASPARTATE AMINOTRANSFERASE / BLOOD UREA NITROGEN / CARBON DIOXIDE / CHLORIDE / CHOLESTEROL / CREATINE PHOSPHOKINASE / CREATININE / GLUCOSE / LACTATE DEHYDROGENASE / LIPASE / PHOSPHORUS / POTASSIUM / SODIUM / TOTAL BILIRUBIN / TOTAL PROTEIN / URIC ACID: tissue Plasma
[1] = 20 mg/kg, 72 h, dose level Low, time 3 day
[2] = 20 mg/kg, 120 h, dose level Low, time 5 day
[3] = 201 mg/kg, 72 h, dose level High, time 3 day
[4] = 201 mg/kg, 120 h, dose level High, time 5 day

Compound: CCCCCCNC(=O)n1cc(F)c(=O)[nH]c1=O [CARMOFUR]
- ABSOLUTE BASOPHIL [1]: 0 CELLS/uL
- ABSOLUTE EOSINOPHIL [1]: 56 CELLS/uL
- ABSOLUTE LYMPHOCYTE [1]: 15579 CELLS/uL
- ABSOLUTE MONOCYTE [1]: 284.33 CELLS/uL
- ABSOLUTE SEGMENTED NEUTROPHIL [1]: 1314 CELLS/uL
- BASOPHIL [1]: 0%
- EOSINOPHIL [1]: 0.33%
- ERYTHROCYTE COUNT [1]: 5.63 x10E6/uL
- HEMATOCRIT [1]: 35.8%
- HEMOGLOBIN [1]: 14.23 G/DL
- LEUKOCYTE COUNT [1]: 17.23 x10E3/uL
- LYMPHOCYTE [1]: 90.33%
- MEAN CORPUSCULAR HEMOGLOBIN [1]: 25.27 pg
- MEAN CORPUSCULAR HEMOGLOBIN CONCENTRATION [1]: 39.8 G/DL
- MEAN CORPUSCULAR VOLUME [1]: 63.6 fL
- MONOCYTE [1]: 1.67%
- NEUTROPHIL [1]: 7.67%
- NUCLEATED RED BLOOD CELLS [1]: 0 /100WBC
- PLATELET COUNT [1]: 1328 x10E3/uL
- ALANINE AMINOTRANSFERASE [1]: 51 u/L
- ALBUMIN [1]: 4.43 G/DL
- ALKALINE PHOSPHATASE [1]: 409 u/L
- ASPARTATE AMINOTRANSFERASE [1]: 85.67 u/L
- BLOOD UREA NITROGEN [1]: 13 mg/dL
- CARBON DIOXIDE [1]: 22.67 mmol/L
- CHLORIDE [1]: 103.67 MEQ/L
- CHOLESTEROL [1]: 70.67 mg/dL
- CREATINE PHOSPHOKINASE [1]: 301.67 u/L
- CREATININE [1]: 0.18 mg/dL
- GLUCOSE [1]: 161 mg/dL
- LACTATE DEHYDROGENASE [1]: 305.33 u/L
- LIPASE [1]: 9 u/L
- PHOSPHORUS [1]: 12.3 mg/dL
- POTASSIUM [1]: 6.94 MEQ/L
- SODIUM [1]: 146.4 MEQ/L
- TOTAL BILIRUBIN [1]: 0.17 mg/dL
- TOTAL PROTEIN [1]: 6.13 G/DL
- URIC ACID [1]: 1.63 mg/dL
- ABSOLUTE BASOPHIL [2]: 0 CELLS/uL
- ABSOLUTE EOSINOPHIL [2]: 222.67 CELLS/uL
- ABSOLUTE LYMPHOCYTE [2]: 15078.33 CELLS/uL
- ABSOLUTE MONOCYTE [2]: 213.33 CELLS/uL
- ABSOLUTE SEGMENTED NEUTROPHIL [2]: 719 CELLS/uL
- BASOPHIL [2]: 0%
- EOSINOPHIL [2]: 1.33%
- ERYTHROCYTE COUNT [2]: 5.39 x10E6/uL
- HEMATOCRIT [2]: 34.47%
- HEMOGLOBIN [2]: 13.83 G/DL
- LEUKOCYTE COUNT [2]: 16.23 x10E3/uL
- LYMPHOCYTE [2]: 93%
- MEAN CORPUSCULAR HEMOGLOBIN [2]: 25.67 pg
- MEAN CORPUSCULAR HEMOGLOBIN CONCENTRATION [2]: 40.1 G/DL
- MEAN CORPUSCULAR VOLUME [2]: 64 fL
- MONOCYTE [2]: 1.33%
- NEUTROPHIL [2]: 4.33%
- NUCLEATED RED BLOOD CELLS [2]: 0 /100WBC
- PLATELET COUNT [2]: 1330.33 x10E3/uL
- ALANINE AMINOTRANSFERASE [2]: 47.67 u/L
- ALBUMIN [2]: 4.3 G/DL
- ALKALINE PHOSPHATASE [2]: 311 u/L
- ASPARTATE AMINOTRANSFERASE [2]: 74.33 u/L
- BLOOD UREA NITROGEN [2]: 14 mg/dL
- CARBON DIOXIDE [2]: 23 mmol/L
- CHLORIDE [2]: 103.33 MEQ/L
- CHOLESTEROL [2]: 73.33 mg/dL
- CREATINE PHOSPHOKINASE [2]: 245.33 u/L
- CREATININE [2]: 0.12 mg/dL
- GLUCOSE [2]: 149 mg/dL
- LACTATE DEHYDROGENASE [2]: 124.33 u/L
- LIPASE [2]: 8 u/L
- PHOSPHORUS [2]: 12.67 mg/dL
- POTASSIUM [2]: 6.45 MEQ/L
- SODIUM [2]: 145.27 MEQ/L
- TOTAL BILIRUBIN [2]: 0.23 mg/dL
- TOTAL PROTEIN [2]: 6.07 G/DL
- URIC ACID [2]: 1.57 mg/dL
- ABSOLUTE BASOPHIL [3]: 0 CELLS/uL
- ABSOLUTE EOSINOPHIL [3]: 0 CELLS/uL
- ABSOLUTE LYMPHOCYTE [3]: 13152.33 CELLS/uL
- ABSOLUTE MONOCYTE [3]: 146.67 CELLS/uL
- ABSOLUTE SEGMENTED NEUTROPHIL [3]: 901 CELLS/uL
- BASOPHIL [3]: 0%
- EOSINOPHIL [3]: 0%
- ERYTHROCYTE COUNT [3]: 5.67 x10E6/uL
- HEMATOCRIT [3]: 35.7%
- HEMOGLOBIN [3]: 14.47 G/DL
- LEUKOCYTE COUNT [3]: 14.2 x10E3/uL
- LYMPHOCYTE [3]: 92.67%
- MEAN CORPUSCULAR HEMOGLOBIN [3]: 25.5 pg
- MEAN CORPUSCULAR HEMOGLOBIN CONCENTRATION [3]: 40.53 G/DL
- MEAN CORPUSCULAR VOLUME [3]: 62.97 fL
- MONOCYTE [3]: 1%
- NEUTROPHIL [3]: 6.33%
- NUCLEATED RED BLOOD CELLS [3]: 0 /100WBC
- PLATELET COUNT [3]: 1275.33 x10E3/uL
- ALANINE AMINOTRANSFERASE [3]: 52.67 u/L
- ALBUMIN [3]: 4.37 G/DL
- ALKALINE PHOSPHATASE [3]: 367 u/L
- ASPARTATE AMINOTRANSFERASE [3]: 69 u/L
- BLOOD UREA NITROGEN [3]: 23.33 mg/dL
- CARBON DIOXIDE [3]: 21 mmol/L
- CHLORIDE [3]: 102.33 MEQ/L
- CHOLESTEROL [3]: 81 mg/dL
- CREATINE PHOSPHOKINASE [3]: 192.67 u/L
- CREATININE [3]: 0.27 mg/dL
- GLUCOSE [3]: 160 mg/dL
- LACTATE DEHYDROGENASE [3]: 198.33 u/L
- LIPASE [3]: 9.33 u/L
- PHOSPHORUS [3]: 12 mg/dL
- POTASSIUM [3]: 6.3 MEQ/L
- SODIUM [3]: 145.27 MEQ/L
- TOTAL BILIRUBIN [3]: 0.17 mg/dL
- TOTAL PROTEIN [3]: 6.33 G/DL
- URIC ACID [3]: 1.77 mg/dL
- ABSOLUTE BASOPHIL [4]: 0 CELLS/uL
- ABSOLUTE EOSINOPHIL [4]: 0 CELLS/uL
- ABSOLUTE LYMPHOCYTE [4]: 4570 CELLS/uL
- ABSOLUTE MONOCYTE [4]: 201.5 CELLS/uL
- ABSOLUTE SEGMENTED NEUTROPHIL [4]: 2778.5 CELLS/uL
- BASOPHIL [4]: 0%
- EOSINOPHIL [4]: 0%
- ERYTHROCYTE COUNT [4]: 8.62 x10E6/uL
- HEMATOCRIT [4]: 52.2%
- HEMOGLOBIN [4]: 20.65 G/DL
- LEUKOCYTE COUNT [4]: 7.55 x10E3/uL
- LYMPHOCYTE [4]: 62.5%
- MEAN CORPUSCULAR HEMOGLOBIN [4]: 24 pg
- MEAN CORPUSCULAR HEMOGLOBIN CONCENTRATION [4]: 39.6 G/DL
- MEAN CORPUSCULAR VOLUME [4]: 60.55 fL
- MONOCYTE [4]: 2.5%
- NEUTROPHIL [4]: 35%
- NUCLEATED RED BLOOD CELLS [4]: 0 /100WBC
- PLATELET COUNT [4]: 1522.5 x10E3/uL
- ALANINE AMINOTRANSFERASE [4]: 43.5 u/L
- ALBUMIN [4]: 5.05 G/DL
- ALKALINE PHOSPHATASE [4]: 216 u/L
- ASPARTATE AMINOTRANSFERASE [4]: 414 u/L
- BLOOD UREA NITROGEN [4]: 219.5 mg/dL
- CARBON DIOXIDE [4]: 19 mmol/L
- CHLORIDE [4]: 115 MEQ/L
- CHOLESTEROL [4]: 78.5 mg/dL
- CREATINE PHOSPHOKINASE [4]: 2230 u/L
- CREATININE [4]: 0.29 mg/dL
- GLUCOSE [4]: 164 mg/dL
- LACTATE DEHYDROGENASE [4]: 1956 u/L
- LIPASE [4]: 24.5 u/L
- PHOSPHORUS [4]: 20.35 mg/dL
- POTASSIUM [4]: 5.82 MEQ/L
- SODIUM [4]: 154.1 MEQ/L
- TOTAL BILIRUBIN [4]: 0.6 mg/dL
- TOTAL PROTEIN [4]: 6.6 G/DL
- URIC ACID [4]: 4.25 mg/dL
